Molecules are shown by their SMILES.

In the assay the target is T1, HIV-integrase (recombinant integrase) (Human immunodeficiency virus type 1 group M subtype B, UniProt P12497).
T1 construct: Recombinant integrase (0.26 ng) was incubated with the beads
In words: HIV-Integrase Inhibition Activity (SPA bead strand-transfer assay). The assay is classed as biochemical. The following applies: recombinant integrase on biotin labeled substrate DNA/SPA beads, P33 labeled target DNA; read-out: Activity (IC50 against HIV-integrase). As to the method: To evaluate in-vitro activity against HIV-integrase, 5 pmole of biotin labeled substrate DNA was bound to 100 μg of Streptavidin coated PVT SPA beads (Amersham Pharmacia Biotech). Recombinant integrase (0.26 ng) was incubated with the beads for 90 min at 37° C. Unbound enzyme was removed by washing the complex followed by addition of inhibitors and 0.1 fmol of P33 labeled target DNA. The reaction was stopped by adding EDTA to a final concentration of 10 mM. Samples were counted in TopCountNXT (Packard) and the CPM was used as a measure of integration. The reaction condition was as described in A. Engelman and R. Craigie, J. Virol. 69, 5908–5911 (1995). The sequences of substrate and target DNA were described in Nucleic Acid Research 22, 1121–1122 (1994). Activity equal to A refers to a compound having IC50=0.003 to 0.10 μM while B and C denote compounds the following IC50=0.1 to 1.0 μM and IC50≧1.0 μM respectively.
The IC50 is the midpoint of a concentration-inhibition curve. With `Cn1c(N2CCCCS2(=O)=O)nc(C(=O)NCc2ccccc2F)c(O)c1=O` [Compound 28, N-[(2-fluorophenyl)methyl]-1,6-dihydro-5-hydroxy-1-methyl-6-oxo-2-(tetrahydro-1,1-dioxido-2H-1,2-thiazin-2-yl)-4-pyrimidinecarboxamide], the IC50 was in the range of 0.1 to 1 µM. As for `Cn1c(N2CCCCS2(=O)=O)nc(C(=O)NCc2cccc(C(F)(F)F)c2)c(O)c1=O` [Compound 29, 1,6-dihydro-5-hydroxy-1-methyl-6-oxo-2-(tetrahydro-1,1-dioxido-2H-1,2-thiazin-2-yl)-N-[[3-(trifluoromethyl)phenyl]methyl]-4-pyrimidinecarboxamide], the IC50 was 0.003 to 0.1 µM. Next, `Cn1c(N2CCCCS2(=O)=O)nc(C(=O)NCCc2cccc(Cl)c2)c(O)c1=O` [Compound 30, N-[2-(3-chlorophenyl)ethyl]-1,6-dihydro-5-hydroxy-1-methyl-6-oxo-2-(tetrahydro-1,1-dioxido-2H-1,2-thiazin-2-yl)-4-pyrimidinecarboxamide]: 0.1 to 1 µM; `Cn1c(N2CCCCS2(=O)=O)nc(C(=O)NCCc2ccccc2)c(O)c1=O` [Compound 31, 1,6-dihydro-5-hydroxy-1-methyl-6-oxo-N-(2-phenylethyl)-2-(tetrahydro-1,1-dioxido-2H-1,2-thiazin-2-yl)-4-pyrimidinecarboxamide]: at least 1 µM; `Cn1c(N2CCCCS2(=O)=O)nc(C(=O)NCc2ccc(C(F)(F)F)cc2)c(O)c1=O` [Compound 32, 1,6-dihydro-5-hydroxy-1-methyl-6-oxo-2-(tetrahydro-1,1-dioxido-2H-1,2-thiazin-2-yl)-N-[[4-(trifluoromethyl)phenyl]methyl]-4-pyrimidinecarboxamide]: 0.1 to 1 µM.

On to `Cn1c(N2CCCCS2(=O)=O)nc(C(=O)NCc2ccco2)c(O)c1=O` [Compound 33, N-(2-furanylmethyl)-1,6-dihydro-5-hydroxy-1-methyl-6-oxo-2-(tetrahydro-1,1-dioxido-2H-1,2-thiazin-2-yl)-4-pyrimidinecarboxamide], for which the IC50 is 0.1 to 1 µM. As for `Cn1c(N2CCCCS2(=O)=O)nc(C(=O)NCc2cccs2)c(O)c1=O` [Compound 34, 1,6-dihydro-5-hydroxy-1-methyl-6-oxo-2-(tetrahydro-1,1-dioxido-2H-1,2-thiazin-2-yl)-N-(2-thienylmethyl)-4-pyrimidinecarboxamide], the IC50 is 0.1 to 1 µM. Then `Cn1c(N2CCCCS2(=O)=O)nc(C(=O)NCc2ccccc2)c(O)c1=O` [Compound 35, 1,6-dihydro-5-hydroxy-1-methyl-6-oxo-N-(phenylmethyl)-2-(tetrahydro-1,1-dioxido-2H-1,2-thiazin-2-yl)-4-pyrimidinecarboxamide], with 0.1 to 1 µM; and `Cn1c(N2CCCCS2(=O)=O)nc(C(=O)NCc2ccccc2Cl)c(O)c1=O` [Compound 36, N-[(2-chlorophenyl)methyl]-1,6-dihydro-5-hydroxy-1-methyl-6-oxo-2-(tetrahydro-1,1-dioxido-2H-1,2-thiazin-2-yl)-4-pyrimidinecarboxamide], with 0.1 to 1 µM; and `Cc1ccccc1CNC(=O)c1nc(N2CCCCS2(=O)=O)n(C)c(=O)c1O` [Compound 37, 1,6-dihydro-5-hydroxy-1-methyl-N-[(2-methylphenyl)methyl]-6-oxo-2-(tetrahydro-1,1-dioxido-2H-1,2-thiazin-2-yl)-4-pyrimidinecarboxamide], with 0.1 to 1 µM. Next, `COc1ccccc1CCNC(=O)c1nc(N2CCCCS2(=O)=O)n(C)c(=O)c1O` [Compound 38, 1,6-dihydro-5-hydroxy-N-[2-(2-methoxyphenyl)ethyl]-1-methyl-6-oxo-2-(tetrahydro-1,1-dioxido-2H-1,2-thiazin-2-yl)-4-pyrimidinecarboxamide]: at least 1 µM; `COc1cccc(CCNC(=O)c2nc(N3CCCCS3(=O)=O)n(C)c(=O)c2O)c1` [Compound 39, 1,6-dihydro-5-hydroxy-N-[2-(3-methoxyphenyl)ethyl]-1-methyl-6-oxo-2-(tetrahydro-1,1-dioxido-2H-1,2-thiazin-2-yl)-4-pyrimidinecarboxamide]: at least 1 µM.

As for `Cc1ccc(CCNC(=O)c2nc(N3CCCCS3(=O)=O)n(C)c(=O)c2O)cc1` [Compound 40, 1,6-dihydro-5-hydroxy-1-methyl-N-[2-(4-methylphenyl)ethyl]-6-oxo-2-(tetrahydro-1,1-dioxido-2H-1,2-thiazin-2-yl)-4-pyrimidinecarboxamide], the 50% inhibitory concentration (IC50) is at least 1 µM. Next, `COc1cc(CNC(=O)c2nc(N3CCCCS3(=O)=O)n(C)c(=O)c2O)cc(OC)c1OC` [Compound 41, 1,6-dihydro-5-hydroxy-1-methyl-6-oxo-2-(tetrahydro-1,1-dioxido-2H-1,2-thiazin-2-yl)-N-[(3,4,5-trimethoxyphenyl)methyl]-4-pyrimidinecarboxamide]: at least 1 µM. Then `Cn1c(N2CCCCS2(=O)=O)nc(C(=O)NCc2cc(Cl)ccc2Cl)c(O)c1=O` [Compound 42, N-[(2,5-dichlorophenyl)methyl]-1,6-dihydro-5-hydroxy-1-methyl-6-oxo-2-(tetrahydro-1,1-dioxido-2H-1,2-thiazin-2-yl)-4-pyrimidinecarboxamide], with 0.1 to 1 µM; and `Cn1c(N2CCCCS2(=O)=O)nc(C(=O)NCc2ccc(Cl)cc2Cl)c(O)c1=O` [Compound 43, N-[(2,4-dichlorophenyl)methyl]-1,6-dihydro-5-hydroxy-1-methyl-6-oxo-2-(tetrahydro-1,1-dioxido-2H-1,2-thiazin-2-yl)-4-pyrimidinecarboxamide], with 0.1 to 1 µM; and `Cn1c(N2CCCCS2(=O)=O)nc(C(=O)NCc2cc(C(F)(F)F)cc(C(F)(F)F)c2)c(O)c1=O` [Compound 44, N-[[3,5-bis(trifluoromethyl)phenyl]methyl]-1,6-dihydro-5-hydroxy-1-methyl-6-oxo-2-(tetrahydro-1,1-dioxido-2H-1,2-thiazin-2-yl)-4-pyrimidinecarboxamide], with at least 1 µM.

With `Cn1c(N2CCCCS2(=O)=O)nc(C(=O)NCc2cc(F)ccc2F)c(O)c1=O` [Compound 45, N-[(2,5-difluorophenyl)methyl]-1,6-dihydro-5-hydroxy-1-methyl-6-oxo-2-(tetrahydro-1,1-dioxido-2H-1,2-thiazin-2-yl)-4-pyrimidinecarboxamide], the half-maximal inhibitory concentration (IC50) fell in the range of 0.1 to 1 µM. Next, `Cn1c(N2CCCCS2(=O)=O)nc(C(=O)NCc2ccccc2C(F)(F)F)c(O)c1=O` [Compound 46, 1,6-dihydro-5-hydroxy-1-methyl-6-oxo-2-(tetrahydro-1,1-dioxido-2H-1,2-thiazin-2-yl)-N-[[2-(trifluoromethyl)phenyl]methyl]-4-pyrimidinecarboxamide]: 0.1 to 1 µM. As for `Cn1c(N2CCCCS2(=O)=O)nc(C(=O)NCc2cc(F)cc(F)c2)c(O)c1=O` [Compound 47, N-[(3,5-difluorophenyl)methyl]-1,6-dihydro-5-hydroxy-1-methyl-6-oxo-2-(tetrahydro-1,1-dioxido-2H-1,2-thiazin-2-yl)-4-pyrimidinecarboxamide], the IC50 was 0.1 to 1 µM. Then `Cn1c(N2CCCCS2(=O)=O)nc(C(=O)NCc2cccc(OC(F)(F)F)c2)c(O)c1=O` [Compound 48, 1,6-dihydro-5-hydroxy-1-methyl-6-oxo-2-(tetrahydro-1,1-dioxido-2H-1,2-thiazin-2-yl)-N-[[3-(trifluoromethoxy)phenyl]methyl]-4-pyrimidinecarboxamide], with 0.1 to 1 µM; and `Cn1c(N2CCCCS2(=O)=O)nc(C(=O)NCCc2c[nH]c3ccccc23)c(O)c1=O` [Compound 49, 1,6-dihydro-5-hydroxy-N-[2-(1H-indol-3-yl)ethyl]-1-methyl-6-oxo-2-(tetrahydro-1,1-dioxido-2H-1,2-thiazin-2-yl)-4-pyrimidinecarboxamide], with at least 1 µM. Next, `Cc1ncn(-c2nc(C(=O)NCc3ccc(F)cc3)c(O)c(=O)n2C)n1` [Compound 58, N-[(4-fluorophenyl)methyl]-1,6-dihydro-5-hydroxy-1-methyl-2-(3-methyl-1H-1,2,4-triazol-1-yl)-6-oxo-4-pyrimidinecarboxamide]: 0.1 to 1 µM. With `Cc1ncnn1-c1nc(C(=O)NCc2ccc(Cl)c(Cl)c2)c(O)c(=O)n1C` [Compound 62, N-[(3,4-dichlorophenyl)methyl]-1,6-dihydro-5-hydroxy-1-methyl-2-(5-methyl-1H-1,2,4-triazol-1-yl)-6-oxo-4-pyrimidinecarboxamide], the IC50 lay in the range of 0.003 to 0.1 µM. `Cn1c(N)nc(C(=O)NCc2ccc(F)cc2)c(O)c1=O` [Compound 63, 2-amino-5-hydroxy-1-methyl-6-oxo-1,6-dihydro-pyrimidine-4-carboxylic acid 4-fluorobenzylamine]: the IC50 was 0.003 to 0.1 µM. As to `CNc1nc(C(=O)NCc2ccc(F)cc2)c(O)c(=O)n1C` [Compound 64, 5-Hydroxy-1-methyl-2-methylamino-6-oxo-1,6-dihydro-pyrimidine-4-carboxylic acid 4-fluoro-benzylamine], the concentration for half-maximal inhibition (IC50) was 0.003 to 0.1 µM.

`Cn1c(N2CCC(O)CC2)nc(C(=O)NCc2ccc(F)cc2)c(O)c1=O` [Compound 65, N-[(4-fluorophenyl)methyl]-1,6-dihydro-5-hydroxy-2-(4-hydroxy-1-piperidinyl)-1-methyl-6-oxo-4-pyrimidinecarboxamide]: the IC50 lay within 0.003 to 0.1 µM. `Cc1cc(CNC(=O)c2nc(N3CCC(O)CC3)n(C)c(=O)c2O)ccc1F` [Compound 66, N-[(4-fluoro-3-methylphenyl)methyl]-1,6-dihydro-5-hydroxy-2-(4-hydroxy-1-piperidinyl)-1-methyl-6-oxo-4-pyrimidinecarboxamide]: the IC50 lay in the range of 0.003 to 0.1 µM.

The values are drawn from patent US7135467B2, “HIV integrase inhibitors” (priority 2003, dated 2006).
